Numbers after ± are expanded uncertainties.
Conditions: for surface tension liquid-gas: Maximal bubble pressure; for mass density: 101.33 kPa, Liquid

## CCn1cc[n+](C)c1.N#C[B-](C#N)(C#N)C#N [1-ethyl-3-methylimidazolium tetracyanoborate]
283.15 K
  surface tension liquid-gas: 49.4 ± 0.3 mN/m
  mass density: 1048.37 ± 1.1 kg/m3
288.15 K
  surface tension liquid-gas: 48.9 ± 0.3 mN/m
  mass density: 1044.37 ± 1.1 kg/m3
293.15 K
  surface tension liquid-gas: 48.2 ± 0.3 mN/m
  mass density: 1040.38 ± 1.1 kg/m3
298.15 K
  surface tension liquid-gas: 47.8 ± 0.3 mN/m
  mass density: 1036.41 ± 1.1 kg/m3
303.15 K
  surface tension liquid-gas: 47.6 ± 0.3 mN/m
  mass density: 1032.46 ± 1.1 kg/m3
308.15 K
  surface tension liquid-gas: 47.1 ± 0.3 mN/m
  mass density: 1028.55 ± 1 kg/m3
313.15 K
  surface tension liquid-gas: 46.8 ± 0.3 mN/m
  mass density: 1024.66 ± 1 kg/m3
318.15 K
  surface tension liquid-gas: 46.4 ± 0.3 mN/m
  mass density: 1020.78 ± 1 kg/m3
323.15 K
  surface tension liquid-gas: 46.2 ± 0.3 mN/m
  mass density: 1016.95 ± 1 kg/m3
328.15 K
  surface tension liquid-gas: 45.5 ± 0.3 mN/m
  mass density: 1013.11 ± 1 kg/m3
333.15 K
  surface tension liquid-gas: 45 ± 0.3 mN/m
  mass density: 1009.32 ± 1 kg/m3
338.15 K
  surface tension liquid-gas: 44.8 ± 0.3 mN/m
  mass density: 1005.54 ± 1 kg/m3

— the NIST ThermoML archive (doi:10.1021/je100228t)
